Measured values taken from paper PMC3340335, “Differential Scanning Fluorometry Signatures as Indicators of Enzyme Inhibitor Mode of Action: Case Study of Glutathione S-Transferase” (PLoS ONE, 2012).
Like-named read-outs stand apart in the source and are kept apart here.

Experiments:
SjGST [1] = molecular target: T1, SjGST (Schistosoma japonicum, UniProt P08515); experiment: SjGST luciferase-coupled luminescence enzymatic assay (PBI 1155 substrate, 100 µM GSH); format: biochemical; details: for inhibition at 58 µM: read-out: % Inhibition at 58 μM against SjGST
T1 construct: purchased GenScript (Piscataway, NJ)
T1 sequence (P08515 whole entry): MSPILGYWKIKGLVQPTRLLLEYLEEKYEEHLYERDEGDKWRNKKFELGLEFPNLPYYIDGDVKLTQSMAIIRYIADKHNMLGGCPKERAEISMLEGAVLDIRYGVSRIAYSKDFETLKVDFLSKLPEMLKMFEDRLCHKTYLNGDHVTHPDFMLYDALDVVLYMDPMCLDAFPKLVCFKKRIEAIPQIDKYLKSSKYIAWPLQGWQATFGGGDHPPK
Procedure: Compound inhibitory activities were evaluated using a previously reported GST enzymatic assay. Three µl of reagents (5 nM final concentration of SjGST (or buffer serving as a no-enzyme control) plus 100 µM final concentration of GSH) were dispensed into 1536-well Greiner white solid-bottom assay plates. Compounds (23 nL) were transferred via Kalypsys pintool equipped with 1,536-pin array. The plates were incubated at room temperature for 15 min before the addition of 20 µM substrate PBI 1155 to initiate the reaction. The plates were centrifuged at 1000 rpm for 15 s and incubated at room temperature for 40 min before the addition 4 µl luciferin detection reagent followed by another 15-s centrifugation at 1000 rpm and 15-min incubation. The plates were then read on ViewLux high-throughput CCD imager (PerkinElmer, Waltham, MA) with a clear emission filter and under standard luminescence settings. Percent inhibition was calculated based on the enzyme-containing and no-enzyme controls using Excel and GraphPad Prism 4.

SjGST [2] = molecular target: T1, SjGST; experiment: biochemical; format: binding; details: for ΔTm at 200 µM / Difference in thermal shift between GSH-present (2 mM) and GSH-absent curves at top compound concentration: 200 µM compound; for ΔTm at 200 µM / Difference in thermal shift between GSH-present (2 mM) and GSH-absent curves across compound concentrations / Difference in thermal shift between GSH-present (2 mM) and GSH-absent curves at top compound concentration: 2 mM GSH versus no GSH; for ΔTm at 200 µM: read-out: Difference in thermal shift between GSH-present (2 mM) and GSH-absent curves at top compound concentration; for Thermal shift (ΔTm versus vehicle control) of SjGST: absence of GSH, top compound concentration, 200 µM, 1 µM SjGST; for Difference in thermal shift between GSH-present (2 mM) and GSH-absent curves across compound concentrations: across all concentrations up to 200 µM
Procedure: Compounds were diluted (1∶2, 7-points) in DMSO row-wise down to 10 µM in a 96-well polypropylene round bottom mother plate, with DMSO alone in the first column of each plate. […] The PCR plates were centrifuged at 1000 rpm for 10 s to ensure good mixing, and sealed with Optical-Quality Sealing Tape (Bio-Rad). […] The mid temperature of the protein thermal melt profiles, Tm, was determined using EXCEL-based custom calculation software available at (ftp://ftp.sgc.ox.ac.uk/pub/biophysics), and fitting of the data to the Boltzmann equation was performed using GraphPad Prism 4. The differences in Tm between vehicle control and compound-containing samples were calculated as thermal shift.

hGST A1-1 = molecular target: T2, hGST A1-1 (Homo sapiens, UniProt P08263); experiment: Thermal shift assay (DSF) with hGST A1-1; format: binding; details: concentration-response, Fig. 7A-C
T2 construct: purchased Oxford Biomedical Research (Oxford, MI)
T2 sequence (P08263 1-222): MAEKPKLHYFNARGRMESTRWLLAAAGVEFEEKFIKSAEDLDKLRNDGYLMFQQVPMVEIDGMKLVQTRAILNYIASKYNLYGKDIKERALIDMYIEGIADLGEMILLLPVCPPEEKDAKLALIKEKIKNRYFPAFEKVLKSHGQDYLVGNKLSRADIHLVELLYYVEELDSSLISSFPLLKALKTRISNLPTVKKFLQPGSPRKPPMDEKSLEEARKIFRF
Procedure: (§1) Compounds were diluted (1∶2, 7-points) in DMSO row-wise down to 10 µM in a 96-well polypropylene round bottom mother plate, with DMSO alone in the first column of each plate. […] The PCR plates were centrifuged at 1000 rpm for 10 s to ensure good mixing, and sealed with Optical-Quality Sealing Tape (Bio-Rad). The plates were subsequently heated approximately 2 min after sample mixing, on an iQ5 thermal cycler at intervals of 1°C from 20 to 95°C, with a ramping rate of 6°C min^−1. The set-up of the filter configurations was customized to accommodate the optimal excitation and emission wavelengths for SYPRO Orange (Ex: 490/Em: 575 nm). The mid temperature of the protein thermal melt profiles, Tm, was determined using EXCEL-based custom calculation software available at (ftp://ftp.sgc.ox.ac.uk/pub/biophysics), and fitting of the data to the Boltzmann equation was performed using GraphPad Prism 4. The differences in Tm between vehicle control and compound-containing samples were calculated as thermal shift.
(§2) The study was subsequently extended to human GST isozymes by testing one representative compound from each category against hGST A1 and M1 (hGST P1 was not pursued due to the protein's lack of clear melt transition, data not shown).

hGST M1-1 = molecular target: T3, hGST M1-1 (Homo sapiens, UniProt P09488); experiment: Thermal shift assay (DSF) with hGST M1-1; format: binding; details: concentration-response, Fig. 7D-F
T3 construct: purchased Oxford Biomedical Research (Oxford, MI)
T3 sequence (P09488 1-218): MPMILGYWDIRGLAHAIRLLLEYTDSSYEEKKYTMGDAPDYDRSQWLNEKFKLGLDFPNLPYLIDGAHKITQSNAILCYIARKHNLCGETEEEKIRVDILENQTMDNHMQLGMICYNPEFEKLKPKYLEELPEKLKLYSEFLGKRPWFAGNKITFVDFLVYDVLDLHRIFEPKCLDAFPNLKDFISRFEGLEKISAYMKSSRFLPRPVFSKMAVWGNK
Procedure: as §1, §2

[3] = 5 nM SjGST, 100 µM GSH, 20 µM PBI 1155, read-out: IC50 against SjGST

C=C(CC)C(=O)c1ccc(OCC(=O)O)c(Cl)c1Cl [Ethacrynic acid, ethacrynic acid]
IC50 (SjGST [1]; [3]): 0.14 µM
ΔTm at 200 µM (SjGST [2]): 11.5 °C
Thermal shift (ΔTm versus vehicle control) of SjGST (SjGST [2]): 1.8 °C
Glutathione-dependency trend of thermal shift curves (with versus without 2 mM GSH) (hGST A1-1): diverging trend
Glutathione-dependency trend of thermal shift curves (with versus without 2 mM GSH) (hGST M1-1): diverging trend

CSC[C@H](NC(=O)CC[C@H](N)C(=O)O)C(=O)NCC(=O)O [S-methyl GSH, S-methyl glutathione]
Inhibition of SjGST at concentrations up to 200 µM (SjGST [1]; tested up to 200 µM): did not show detectable inhibition
Thermal shift (ΔTm versus vehicle control) of SjGST (SjGST [2]): < 2 °C

O=c1c(O)c(-c2cc(O)c(O)c(O)c2)oc2cc(O)cc(O)c12 [Myricetin, myricetin]
IC50 (SjGST [1]): 6.6 µM
Thermal shift (ΔTm versus vehicle control) of SjGST (SjGST [2]): over 3 °C
Difference in thermal shift between GSH-present (2 mM) and GSH-absent curves across compound concentrations (SjGST [2]): approximately 4 °C

NC(CCC(=O)NC(CSc1ccc(C(=O)OCCOCCOCCOCCOC(=O)c2ccc(SCC(NC(=O)CCC(N)C(=O)O)C(=O)NCC(=O)O)c([N+](=O)[O-])c2)cc1[N+](=O)[O-])C(=O)NCC(=O)O)C(=O)O (stereo not shown) [Bis-(NB-GS)]
IC50 (SjGST [1]; [3]): 0.67 µM
Fold greater inhibitory potency of Bis-(NB-GS) versus NBD-GS (SjGST [1]; ratio of IC50 values, 0.67 µM versus 2.3 µM): over 3 fold
ΔTm at 200 µM (SjGST [2]): 1.2 °C
Thermal shift (ΔTm versus vehicle control) of SjGST (SjGST [2]): 11.1 °C

CCCCCCCCSC[C@H](NC(=O)CC[C@H](N)C(=O)O)C(=O)NCC(=O)O [S-octyl GSH, S-octyl glutathione]
inhibition at 58 µM (SjGST [1]): 83%
Difference in thermal shift between GSH-present (2 mM) and GSH-absent curves at top compound concentration (SjGST [2]): 0.45 °C
Glutathione-dependency trend of thermal shift curves (with versus without 2 mM GSH) (hGST A1-1): converging trend
Glutathione-dependency trend of thermal shift curves (with versus without 2 mM GSH) (hGST M1-1): converging trend

NC(CCC(=O)NC(CSc1ccc([N+](=O)[O-])c2nonc12)C(=O)NCC(=O)O)C(=O)O (stereo not shown) [NBD-GS]
IC50 (SjGST [1]; [3]): 2.3 µM
ΔTm at 200 µM (SjGST [2]): 4 °C
Thermal shift (ΔTm versus vehicle control) of SjGST (SjGST [2]): 5.9 °C

CCCCSC[C@H](NC(=O)CC[C@H](N)C(=O)O)C(=O)NCC(=O)O [S-butyl GSH, S-butyl glutathione]
inhibition at 58 µM (SjGST [1]): 35%
Difference in thermal shift between GSH-present (2 mM) and GSH-absent curves at top compound concentration (SjGST [2]): 1.8 °C

CCCCCCSC[C@H](NC(=O)CC[C@H](N)C(=O)O)C(=O)NCC(=O)O [S-hexyl GSH, S-hexyl glutathione]
inhibition at 58 µM (SjGST [1]): 58%
Difference in thermal shift between GSH-present (2 mM) and GSH-absent curves at top compound concentration (SjGST [2]): 1.8 °C

O=[N+]([O-])c1ccc(SCCCCCCCCO)c2nonc12 [NBD-8-OH]
IC50 (SjGST [1]; [3]): 0.66 µM
ΔTm at 200 µM (SjGST [2]): 10.5 °C
Thermal shift (ΔTm versus vehicle control) of SjGST (SjGST [2]): failed to display any significant thermal stabilization effect

N[C@@H](CCC(=O)N[C@@H](CS)C(=O)NCC(=O)O)C(=O)O [GSH, γ-Glu-Cys-Gly]
ΔTm at 2000 µM (SjGST [2]; 2 mM GSH, at low compound concentrations, read-out: Enhancement in thermal shift baseline due to GSH): ~4 °C

O=c1c(O)c(-c2ccc(O)c(O)c2)oc2cc(O)cc(O)c12 [Quercetin, quercetin]
IC50 (SjGST [1]; [3]): 5 µM
Thermal shift (ΔTm versus vehicle control) of SjGST (SjGST [2]): over 3 °C
Difference in thermal shift between GSH-present (2 mM) and GSH-absent curves across compound concentrations (SjGST [2]): approximately 4 °C
Glutathione-dependency trend of thermal shift curves (with versus without 2 mM GSH) (hGST A1-1): parallel trend
Glutathione-dependency trend of thermal shift curves (with versus without 2 mM GSH) (hGST M1-1): parallel trend
